# Values of other authors in patent US7803960B2, “Phenyloxyaniline derivatives” (Bayer Schering Pharma Aktiengesellschaft, priority 2006, dated 2010).
# Legend:
# [1] = system: Peripheral benzodiazepine receptor (PBR); conditions: compared with [^11C]PK11195 (1)
# [2] = compared with [^11C]PK11195 (1)
# PBRs = target: T1, PBRs (Homo sapiens, UniProt P30536); conditions: C-11 isotope labeled version, in vivo imaging
# T1 construct: host or cells: brain, in vivo
# T1 sequence (P30536 whole entry): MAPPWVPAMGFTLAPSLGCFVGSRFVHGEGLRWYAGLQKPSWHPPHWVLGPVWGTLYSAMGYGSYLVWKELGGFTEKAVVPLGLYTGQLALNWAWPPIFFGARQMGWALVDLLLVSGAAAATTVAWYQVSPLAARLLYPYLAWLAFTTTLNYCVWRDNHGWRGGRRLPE
SMILES,binding affinity to PBR [1],accumulation in the brain [2],signal in the brain (PBRs)
COc1ccc(O[11CH3])c(CN(C(C)=O)c2cc(F)ccc2Oc2ccccc2)c1 [Compound 2],higher,higher,
"COc1ccc(OCC[18F])c(CN(C(C)=O)c2cc(F)ccc2Oc2ccccc2)c1 [Compound 3, N-(5-Fluoro-2-phenoxyphenyl)-N-(2-(2-[^18F]fluoroethoxy)-5-methoxybenzyl)acetamide]",higher,higher,
CC[C@@H](C)N(C)C(=O)c1cc2ccccc2c(-c2ccccc2Cl)n1 [PK11195],,,not high enough for stable quantitative analysis
